Laboratory results published in patent US10149840B2, “OCT3 activity inhibitor containing imidazopyridine derivative as active component, and OCT3 detection agent” (SHIN NIPPON BIOMEDICAL LABORATORIES, LTD., priority 2012, dated 2018).

Key:
[1] = measured Brain/Blood verification experiment in BALB/c mice; type: in vivo; conditions: mouse, 5 mg/kg, five minutes after administration, brain homogenate vs plasma
Description: The Brain/Blood value predicted with the above method was verified with an experiment using BALB/c mice. As test substances in the verification experiment, two compounds of SR-4277 and Famotidine were used. […] The test substance was administered in 5 mg/kg to the mice. The mice were anesthetized in advance with isoflurane, and exsanguination was performed from the vena cava of the mice five minutes after the administration. Brains were removed, and weights thereof were measured. After that, a brain homogenate was prepared. The collected blood was subjected to centrifugation, and plasma was thereby prepared. Concentrations of the test substance in plasma and the brain homogenate were measured with HPLC and MS.

OCT3 = OCT3 (Homo sapiens (Human), UniProt O75751); conditions: Non Patent Literature 1; read-out: IC50 (reported); cited from earlier work
OCT3, sequence (O75751 whole entry): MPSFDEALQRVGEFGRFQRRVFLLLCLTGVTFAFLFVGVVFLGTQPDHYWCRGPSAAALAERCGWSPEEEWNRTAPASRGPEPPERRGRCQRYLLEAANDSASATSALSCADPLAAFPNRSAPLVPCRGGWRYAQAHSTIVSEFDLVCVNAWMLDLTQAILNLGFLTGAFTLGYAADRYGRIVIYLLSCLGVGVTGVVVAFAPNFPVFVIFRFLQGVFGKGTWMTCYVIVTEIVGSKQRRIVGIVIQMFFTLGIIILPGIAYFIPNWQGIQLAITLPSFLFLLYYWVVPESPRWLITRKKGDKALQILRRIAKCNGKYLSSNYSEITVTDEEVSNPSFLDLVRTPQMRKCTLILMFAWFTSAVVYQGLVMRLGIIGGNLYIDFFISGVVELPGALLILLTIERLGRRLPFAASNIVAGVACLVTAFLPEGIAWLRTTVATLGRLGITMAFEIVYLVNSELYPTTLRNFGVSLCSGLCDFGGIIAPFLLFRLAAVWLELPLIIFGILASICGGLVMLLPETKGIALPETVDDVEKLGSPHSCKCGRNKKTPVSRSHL

ddY male mice = experiment: forced swimming test; type: in vivo; conditions: low dose administered alone (imipramine 4 mg/kg or OCT3 inhibitor 0.25 μl/hr)
Description: In this forced swimming test, mice or rats as test animals are forced to swim in water tanks from which the mice or rats cannot escape. Then, an immobility behavior of the test animals after an escape behavior thereof (a state in which only the head is above the water surface and the test animals are floating without moving the hands or feet) is observed. When the test animals are put into the water tanks again 24 hours or more later, the immobility behavior is expressed earlier than in the first experiment. Duration of this immobility behavior for a certain time (usually about 5 minutes) is relatively accurately reproduced.
Specifically, a test is performed as follows.
In an experiment, ddY male mice each weighing 28 to 33 g (Japan SLC, Inc.) are used. […] After being acquired, these mice are bred in a room in which temperature (22 to 24° C.), humidity (50 to 60%), and lighting (lighting 8:00 to 20:00) are controlled for three or more days. In the first forced swimming test, all the experimental mice are forced to swim in glass cylinders (diameter 15.5 cm, depth 17 cm, water depth 12 cm, water temperature 25° C.) for 300 seconds to measure immobility time. The mice are distributed into experimental groups (an OCT3 inhibitor-administrated group, a positive control group, and a negative control group) such that an average value of the immobility time is almost the same. […]

Row | Structure (SMILES) | Kp at 5 min [1] | IC50 (OCT3) [µM] | average value of the immobility time (ddY male mice)
1 | NC(N)=Nc1nc(CSCCC(N)=NS(N)(=O)=O)cs1 [Famotidine] | 0.1 | 20 | –
2 | CN/C(=N/CCSCc1nc[nH]c1C)NC#N [cimetidine] | – | 240 | –
3 | CN1C2CCCC1CC(NC(=O)c1nn(C)c3ccccc13)C2 (stereo not drawn) [granisetron] | – | ≤ 100 | –
4 | CN(C)CCCN1c2ccccc2CCc2ccccc21 [imipramine] | – | – | about 200 seconds
5 | Cn1cc(C(=O)[C@@H]2CCc3nc[nH]c3C2)c2ccccc21 [ramosetron] | – | ≤ 100 | –
